# How the values were obtained:
# Format in all cases: cell-based, human
# HepG2 cells = experiment: LDL uptake assay (fluorescent DiI-LDL method); details: for LDL UPTAKE % STIMULATION: HepG2
# Procedure: LDL uptake in HepG2 cells cultured in 12 well plates (Costar) at 2 X 10^5 per well was assayed by the fluorescent LDL method using a fluorescence microscope and video camera (SIT 66) attached to computer (Laser 25) with JAVA image analysis software (Jandel Scientific, CA) as previously reported (Grove, et al.,). […] Specifically, 2 ug/ml Dil-LDL in serum free media was added to HepG2 monolayers for two hours. The monolayers were washed 3 times to remove free Dil-LDL and fixed with 4% formalin in phosphate-buffered saline. Accumulated fluorescence was measured by quantitating the average intensity of 25 - 50 cells. Three difference fields in each of duplicate or triplicate monolayers were quantitated and averaged. The amount of LDL protein taken up was determined as follows. Unfixed cell monolayers were solubilized with 0.1% sodium dodecyl sulfate, transferred into glass tubes, and the lipids (and Dil) were extracted into chloroform using the Bligh-Dyer extraction procedure. Fluorescence in the chloroform layer was quantitated with a fluorescence spectrophotometer (Perkin-Elmer) and compared with a standard curve generated by extracting Dil from known quantities of Dil-LDL. Coomassie blue kits (Pierce) were used to estimate cell proteins.
# [1] = system: tyrosine phosphorylation in HepG2 proteins; experiment: Phosphotyrosine proteins (antiphosphotyrosine immunoblot)
# Procedure: HepG2 cells were plated into six well plates at 4 x 10^5 cells/well. After 48 hours (about 70% confluency), the cells were incubated with Oncostatin M or drugs for the indicated time, rapidly washed once with ice cold PBS, and lysed with 100ul of SDS-sample buffer containing 1 mM mercaptoethanol and 500 uM sodium vanadate. The bufer was rapidly mixed over the entire well before being removed and heated to 100° C for 15 minutes. The samples (25 ul) were separated by SDS-PAGE on 10-20% gradient gels and […] to Hybond C Extra membranes (Amersham). […] Proteins containing phosphotyrosine were detected using an affinity purified rabbit antiphosphotyrosine antibody followed by ['^251]-labeled protein A (ICN).
# diacylglycerol = experiment: Lipid analysis: diacylglycerol levels ([3H]-glycerol labelling, TLC); details: genistein
# Procedure: Lipids from cells radiolabeled with [^32P]-orthophosphate or with (^3H]-glycerol were extracted by a modification of the method of Bligh and Dyer. Extracts, dried under a stream of nitrogen, were solublized with 100 ul of chloroform and spotted on thin-layer chromatography (TLC) plates (Silica Gel 60, Merck). The phospholipids were resolved either with a solvent system designed to separate the inositides (propanol: 4.3 M ammonium hydroxide, 65:35 v/v) or with a system designed to separate phosphatidylcholine and phosphatidylethanolamine (chloroform:methanol:acetic acid:water (50:35:8:1, v/v). Neutral lipids were resolved in a tank containing benzene:ethyl acetate (80:20, v/v). The radiolabeled phospholipids were identified as spots on autoradiographs which comigrated with authentic standards (detected with iodine vapors), were scraped into scintillation vials, and were quantitated in a scintillation counter. Neutral lipid standards (diacylglycerol and triacylglycerol) which were added to the [^3H)- glycerol labeled lipid extracts before chromatography were identified with iodine vapors, scraped into scintillation vials, and analyzed as outlined above.
compound,measurement,setting,value
CC1CNCCN1S(=O)(=O)c1cccc2cnccc12 (stereo not drawn) [H-7],effect on increase in LDL uptake induced by Oncostatin M,"HepG2 cells; 10 ug/ml H-7 for 30 min, then 4 hours Oncostatin M (100 ng/ml)",prevented the increases in LDL uptake
same,effect on increase in LDL uptake induced by PMA,"HepG2 cells; 10 ug/ml H-7 for 30 min, then 4 hours PMA (10 nM)",prevented the increases in LDL uptake
"CCCCCCCCCCCCCC(=O)O[C@@H]1[C@@H](C)[C@@]2(O)[C@@H](C=C(CO)C[C@]3(O)C(=O)C(C)=C[C@@H]23)[C@@H]2C(C)(C)[C@]12OC(C)=O [PMA, phorbol 12-myristate 13-acetate]",LDL uptake,"HepG2 cells; PMA 10 nM, 4 hours, time dependency similar to Oncostatin M",induced LDL uptake
same,effect on the inhibition of LDLR expression with genistein,HepG2 cells; PMA 50 nM added to genistein-inhibited HepG2 cells,reversed
vanadate,TYROSINE PHOSHORYLATION,"[1]; HepG2, grades - to + + + + +, legend not given",+ + +
same,effect on tyrosine kinase stimulation by Oncostatin M,[1]; vanadate with Oncostatin M,synergistically enhance
same,LDL UPTAKE % STIMULATION,HepG2 cells,6%
same,effect on LDLR expression stimulation by Oncostatin M,HepG2 cells; vanadate with Oncostatin M,synergistically enhance
O=c1c(-c2ccc(O)cc2)coc2cc(O)cc(O)c12 [Genistein],effect on Oncostatin M-induced elevations in diacylglycerol,diacylglycerol,inhibited
same,effect on Oncostatin M-induced tyrosine phosphorylation,"[1]; genistein 30 ug/ml, 30 minutes before Oncostatin M (100 ng/ml, 10 minutes)",mitigated
same,LDL UPTAKE % STIMULATION,HepG2 cells,-10%
same,effect on Oncostatin M-induced elevations in LDLR activity,HepG2 cells; genistein,inhibited
